Where two headings read alike, the source gives them in different places.
Tests used:
268gly = test: Enzyme kinetics of prodrugs with 268gly mutant of human CPA1 (coupled assay); format: biochemical; details: 268Gly
In short: (§1)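 Coupled spectrophotometric assay: released methotrexate converted by excess carboxypeptidase G (17 milliunits) to its pteroate, followed at 315 nm (Δε 9.57 mM^-1 cm^-1). 25° C in 25 mM tris-HCl, 100 mM NaCl, pH 7.4; reaction started with wild-type or mutant carboxypeptidase A. Kinetic constants from initial velocities by Michaelis-Menten analysis.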

mutant enzyme = test: Substrate behaviour with mutant enzyme; format: biochemical, human
Text: This type of compound is not useful for ADEPT.

[1] = target: T1, wild type human carboxypeptidase A1 (Homo sapiens, UniProt P15085); test: Enzyme kinetics of prodrugs with wild type human carboxypeptidase A1 (coupled assay); format: biochemical
T1 sequence (P15085 111-419): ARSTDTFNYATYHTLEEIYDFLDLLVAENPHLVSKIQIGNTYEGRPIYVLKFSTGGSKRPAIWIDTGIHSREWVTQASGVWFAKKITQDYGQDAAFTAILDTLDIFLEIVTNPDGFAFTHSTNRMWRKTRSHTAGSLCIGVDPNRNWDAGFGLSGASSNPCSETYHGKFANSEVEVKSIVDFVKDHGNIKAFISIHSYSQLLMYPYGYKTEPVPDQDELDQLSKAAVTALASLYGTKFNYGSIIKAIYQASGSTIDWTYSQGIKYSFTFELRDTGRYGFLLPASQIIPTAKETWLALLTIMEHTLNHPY
In short: as §1

[2] = Stability and biodistribution of prodrugs in vivo (HPLC of plasma and tissues); design: species or system mice (CD-1 nude; BALB/C where indicated); details: for remaining at 0.5 h / remaining at 2 h / concentration at 0.5 h: mouse; for concentration at 0.5 h: read-out: concentration of prodrug in plasma

CN(Cc1cnc2nc(N)nc(N)c2n1)c1ccc(C(=O)N[C@@H](CCC(=O)O)C(=O)N[C@@H](Cc2cccc(C3CCCC3)c2)C(=O)O)cc1 [Prodrug 9]
kcat/Km (268gly): 92000 M⁻¹ s⁻¹
substrate for a mutant enzyme (in words) (mutant enzyme): good substrates for a mutant enzyme
human CPA catalyzed reaction (in words) [1]: not measureable
kcat/Km for human CPA1 compared with that of the L-phenylalanine prodrug (in words) [1]: much lower
substrate for wild type CPA (in words) [1]: not for the wild type enzyme
concentration of prodrug in cecum ([2]; CECUM, 30 min, 50 mg/kg i.p. or i.v., CD-1 nude mice): 4.l
concentration of prodrug in cecum ([2]; CECUM, 120 min, 50 mg/kg i.p. or i.v., CD-1 nude mice): 108.3 nmol/g
concentration of prodrug in feces ([2]; FECES, 30 min, 50 mg/kg i.p. or i.v., BALB/C mice): 1604.27 nmol/g
concentration of prodrug in feces ([2]; FECES, 30 min, 50 mg/kg i.p. or i.v., CD-1 nude mice): 1104.1 nmol/g
concentration of prodrug in feces ([2]; FECES, 120 min, 50 mg/kg i.p. or i.v., CD-1 nude mice): 1505.7 nmol/g
concentration of prodrug in kidney ([2]; KIDNEY, 30 min, 50 mg/kg i.p. or i.v., CD-1 nude mice): 6.8 nmol/g
concentration of prodrug in kidney ([2]; KIDNEY, 120 min, 50 mg/kg i.p. or i.v., CD-1 nude mice): 1.3 nmol/g
concentration of prodrug in large intestine ([2]; LARGE INTESTINE, 30 min, 50 mg/kg i.p. or i.v., CD-1 nude mice): 2.6 nmol/g
concentration of prodrug in large intestine ([2]; LARGE INTESTINE, 120 min, 50 mg/kg i.p. or i.v., CD-1 nude mice): 6.2 nmol/g
concentration of prodrug in liver ([2]; LIVER, 30 min, 50 mg/kg i.p. or i.v., CD-1 nude mice): 54.3 nmol/g
concentration of prodrug in liver ([2]; LIVER, 120 min, 50 mg/kg i.p. or i.v., CD-1 nude mice): 126.2 nmol/g
concentration of prodrug in small intestine ([2]; SMALL INTESTINE, 30 min, 50 mg/kg i.p. or i.v., BALB/C mice): 420.3 nmol/g
concentration of prodrug in small intestine ([2]; SMALL INTESTINE, 30 min, 50 mg/kg i.p. or i.v., CD-1 nude mice): 377.9 nmol/g
concentration of prodrug in small intestine ([2]; SMALL INTESTINE, 120 min, 50 mg/kg i.p. or i.v., CD-1 nude mice): 211.0 nmol/g
concentration of prodrug in spleen ([2]; SPLEEN, 30 min, 50 mg/kg i.p. or i.v., CD-1 nude mice): 8.4 nmol/g
stability in vivo (in words) ([2]; mice, 50 mg/kg): stable in vivo
remaining at 0.5 h ([2]; cecum, 50 mg/kg, CECUM, 30 min, 50 mg/kg i.p. or i.v., CD-1 nude mice, read-out: stability: percentage of material observed as intact prodrug, cecum): 100%
remaining at 2 h ([2]; cecum, 50 mg/kg, CECUM, 120 min, 50 mg/kg i.p. or i.v., CD-1 nude mice, read-out: stability: percentage of material observed as intact prodrug, cecum): 99%
remaining at 0.5 h ([2]; feces, 50 mg/kg, FECES, 30 min, 50 mg/kg i.p. or i.v., BALB/C mice, read-out: stability: percentage of material observed as intact prodrug, feces (converted)): 98%
remaining at 0.5 h ([2]; feces, 50 mg/kg, FECES, 30 min, 50 mg/kg i.p. or i.v., CD-1 nude mice, read-out: stability: percentage of material observed as intact prodrug, feces (converted)): 97%
remaining at 2 h ([2]; feces, 50 mg/kg, FECES, 120 min, 50 mg/kg i.p. or i.v., CD-1 nude mice, read-out: stability: percentage of material observed as intact prodrug, feces): 94%
remaining at 0.5 h ([2]; kidney, 50 mg/kg, KIDNEY, 30 min, 50 mg/kg i.p. or i.v., CD-1 nude mice, read-out: stability: percentage of material observed as intact prodrug, kidney): 100%
remaining at 2 h ([2]; kidney, 50 mg/kg, KIDNEY, 120 min, 50 mg/kg i.p. or i.v., CD-1 nude mice, read-out: stability: percentage of material observed as intact prodrug, kidney): 100%
remaining at 0.5 h ([2]; large intestine, 50 mg/kg, LARGE INTESTINE, 30 min, 50 mg/kg i.p. or i.v., CD-1 nude mice, read-out: stability: percentage of material observed as intact prodrug, large intestine): 100%
remaining at 2 h ([2]; large intestine, 50 mg/kg, LARGE INTESTINE, 120 min, 50 mg/kg i.p. or i.v., CD-1 nude mice, read-out: stability: percentage of material observed as intact prodrug, large intestine): 100%
remaining at 0.5 h ([2]; liver, 50 mg/kg, LIVER, 30 min, 50 mg/kg i.p. or i.v., CD-1 nude mice, read-out: stability: percentage of material observed as intact prodrug, liver (converted)): 83%
remaining at 2 h ([2]; liver, 50 mg/kg, LIVER, 120 min, 50 mg/kg i.p. or i.v., CD-1 nude mice, read-out: stability: percentage of material observed as intact prodrug, liver): 94%
concentration at 0.5 h ([2]; plasma, 50 mg/kg, PLASMA, 30 min, 50 mg/kg i.p. or i.v., BALB/C mice): 4900 nM
remaining at 0.5 h ([2]; plasma, 50 mg/kg, PLASMA, 30 min, 50 mg/kg i.p. or i.v., BALB/C mice, read-out: stability: percentage of material observed as intact prodrug, plasma): 100%
concentration at 0.5 h ([2]; plasma, 50 mg/kg, PLASMA, 30 min, 50 mg/kg i.p. or i.v., CD-1 nude mice): 1100 nM
remaining at 0.5 h ([2]; plasma, 50 mg/kg, PLASMA, 30 min, 50 mg/kg i.p. or i.v., CD-1 nude mice, read-out: stability: percentage of material observed as intact prodrug, plasma): 100%
remaining at 0.5 h ([2]; small intestine, 50 mg/kg, SMALL INTESTINE, 30 min, 50 mg/kg i.p. or i.v., BALB/C mice, read-out: stability: percentage of material observed as intact prodrug, small intestine): 98%
remaining at 0.5 h ([2]; small intestine, 50 mg/kg, SMALL INTESTINE, 30 min, 50 mg/kg i.p. or i.v., CD-1 nude mice, read-out: stability: percentage of material observed as intact prodrug, small intestine): 97%
remaining at 2 h ([2]; small intestine, 50 mg/kg, SMALL INTESTINE, 120 min, 50 mg/kg i.p. or i.v., CD-1 nude mice, read-out: stability: percentage of material observed as intact prodrug, small intestine): 93%
remaining at 0.5 h ([2]; spleen, 50 mg/kg, SPLEEN, 30 min, 50 mg/kg i.p. or i.v., CD-1 nude mice, read-out: stability: percentage of material observed as intact prodrug, spleen): 100%
